According to US20110275559A1, “Long-Acting Y2 and/or Y4 Receptor Agonists” (Novo Nordisk A/S, priority 2008, published 2011):
*1 amine or outer side, *2 acyl side, *3 side chain or, on linkers, in order; H or OH if unused. Where a SMILES comes first, the peptide text is derived from it. Side-chain parts run from the residue outwards. The star is where a group is joined. C20 diacid = O=C(O)CCCCCCCCCCCCCCCCCCC(=O)*; C18 diacid = O=C(O)CCCCCCCCCCCCCCCCC(=O)*; γGlu = O=C(O)[C@H](CCC(=O)[*:2])N[*:1]; Trx = NC[C@H]1CC[C@H](C(=O)O)CC1; AEEA = NCCOCCOCC(=O)O

Experiments:
Y2 receptor = biological target: T1, Y2 receptor (Homo sapiens, UniProt P49146); assay: Y2 receptor ACTOne based FLIPR assay (cAMP biosensor); format: cell-based; details: Table 2, PP analogues; ACTOne HEK-293 cells; read-out: Y2 cAMP EC50
T1 construct: host or cells: ACTOne HEK-293 cells
T1 sequence (P49146 1-381): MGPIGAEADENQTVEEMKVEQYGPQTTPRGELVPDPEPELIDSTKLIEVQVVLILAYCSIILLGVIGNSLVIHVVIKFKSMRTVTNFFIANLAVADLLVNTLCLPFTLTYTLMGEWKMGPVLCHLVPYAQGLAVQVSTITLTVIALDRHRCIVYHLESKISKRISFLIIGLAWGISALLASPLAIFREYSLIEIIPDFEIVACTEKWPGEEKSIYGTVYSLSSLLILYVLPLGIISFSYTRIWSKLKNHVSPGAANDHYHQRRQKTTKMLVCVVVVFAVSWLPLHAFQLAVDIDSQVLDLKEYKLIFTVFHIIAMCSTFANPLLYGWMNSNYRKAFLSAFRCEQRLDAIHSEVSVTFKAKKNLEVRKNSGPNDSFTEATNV
From the text: ACTOne™ is an easily scaleable cAMP biosensor HTS platform for measurement of Gs and Gi coupled 7™ receptor signalling from BD Biosciences (San Jose, Calif.). The cells express a biosensor developed around a modified rat olfactory cyclic nucleotide gated (CNG) calcium channel—a fairly non-discriminatory ion channel that responds to cAMP and cGMP. The CNG has been engineered to be cAMP selective and thus function as a cAMP responsive biosensor that signals through calcium or membrane potential responsive dyes. Y2 or Y4 receptor expressing ACTOne HEK-293 cells are obtained from BD Biosciences. The cells are loaded with a calcium responsive dye that only distributes in the cytoplasm. Probenecid, an inhibitor of the organic anion transporter is added to prevent the dye from leaving the cell. A phosphodiesterase inhibitor is added to prevent formatted cAMP from being degraded. Isoproterenol (an β1/β2 agonist) is added to activate the adenylate cyclase. When an Y2 or Y4 receptor agonist is added, the adenylate cyclase is inactivated. The decreased calcium concentration in the cytoplasm is then detected as an increase in fluorescence. Together with the test substance, Isoproterenol at a concentration matching EC80, is added to all wells. • The cells are plated out in Greiner 384-well plates. […] The plates are covered with tinfoil to avoid light (the dye can be excited by the daylight, which results in higher baseline and variation). • The FLIPR (FLIPRtetra from Molecular Devices, CA, USA) adds 1 μl sample and 1 μl isoproterenol (0.05 μM final concentration) at the same time. • The fluorescence signal from the wells is measured 330 seconds after sample addition on the FLIPR.

in vivo = details: Göttingen, minipig, iv
Procedure: (§1) The mini-pigs had two central venous catheters inserted which were used for intra venous (i.v.) dosing and bloodsampling. Compound was dissolved in 50 mM K2HPO4, 0.05% tween 80, pH=8.0 to a concentration of 180 nmol/ml. The pigs were dosed with 6 nmol compound/kg body weight. […] The blood samples were collected into test tubes containing EDTA buffer for stabilization and kept on ice for max. 20 minutes before centrifugation. The centrifugation procedure to separate plasma was; 4° C., 3000 rpm for 10 minutes. Plasma were collected and immediately transferred to Micronic tubes stored at −20° C. until assayed.
An additional mini-pig PK assay was used for measuring PK of the compounds of the invention. […] The animals had two central venous catheters inserted which were used for intra venous (i.v.) dosing and blood sampling. Compounds were dissolved in 10 mM Na2HPO4, 150 mM NaCl, 0.01% tween 80, pH=4.0 to concentrations in the range of 40 nmol/ml to 200 nmol/ml. The mini-pigs were dosed i.v. with 10 nmol compound/kg body weight, occasionally other doses such as 4 nmol/kg, 30 nmol/kg or 50 nmol/kg were administered. Each compound was dosed to 3 or 4 mini-pigs, and two compounds may be given simultaneously to the same animal. Blood were sampled pre-dose and 12 times during the first 10 hours post-dose. Blood were furthermore sampled once daily until 13 days post dosing. The blood samples were collected into test tubes containing EDTA buffer, trasylol and Val-Pyr for stabilization and kept on ice for max. 20 minutes. Samples were centrifuged at 4° C., 2000G for 10 minutes to separate plasma. Plasma were collected and immediately transferred to Micronic tubes stored at −20° C. until assayed.
Plasma samples were analysed by LC-MS on an LTQ-Orbitrap (ThermoFisher Scientific, Bremen) to which Accela HPLC pumps and an autosampler were connected (both from ThermoFisher). […] HPLC was performed on a Jupiter Proteo column (4μ) 90A (50×2.0 mm ID). […] The flow rate was 0.3 ml/min. For analysis of plasma samples, 30 μl plasma was precipitated with 90 μl ethanol. […] The heptane phase was removed after 5 min and the remaining solution was analysed by LC-MS as described above. For construction of plasma standards, compound was spiked to plasma (minipig) at the following concentrations: 1 nM, 2 nM, 5 nM, 10 nM, 20 nM, 50 nM, 100 nM, 200 nM. The plasma standards were treated as the samples. The lower limit of quantification was estimated to 2 nM.
Non-compartmental analysis (NCA): Plasma concentration-time profiles were analyzed by non-compartmental pharmacokinetics analysis (NCA) using WinNonlin Professional 5.0 (Pharsight Inc., Mountain View, Calif., USA). NCA was performed using the individual plasma concentration-time profiles from each animal.
For determination of plasma concentration of the PYY and PP peptide derivative or analogues thereof the following Methods 1-4 were used.
as §1, with “bloodsampling. The compound” for “bloodsampling. Compound”, “to an appropriate” for “to a”, “concentration (e.g. 25-500 nmol/mL).” for “concentration of 180 nmol/ml.”, “dosed intravenously (i.v.) or subcutaneously (s.c.)” for “dosed”, “with between 1 and 30” for “with 6”, “buffer (with Aprotinin 15000 KIE/mL and Val-Pyr 0.30 mM)” for “buffer”
An additional mini-pig PK assay was used for measuring PK of the compounds of the invention. […] The animals had two central venous catheters inserted which were used for intra venous (i.v.) dosing and blood sampling.

EC50 (Y2 receptor) [nM]	half-life (in vivo; 13.5 nmol/kg) [h]	half-life (in vivo; 12 nmol/kg) [h]	half-life (in vivo; 4 nmol/kg) [h]	SMILES
> 1000	55	–	–	CC[C@H](C)[C@H](NC(=O)[C@H](Cc1ccc(O)cc1)NC(=O)[C@H](CCCNC(=N)N)NC(=O)[C@H](CCCNC(=N)N)NC(=O)[C@H](CC(C)C)NC(=O)[C@H](CC(=O)O)NC(=O)[C@H](C)NC(=O)[C@H](C)NC(=O)[C@H](Cc1ccc(O)cc1)NC(=O)[C@H](CCC(N)=O)NC(=O)[C@H](CCCCNC(=O)COCCOCCNC(=O)COCCOCCNC(=O)CC[C@H](NC(=O)[C@H]1CC[C@H](CNC(=O)CCCCCCCCCCCCCCCCCCC(=O)O)CC1)C(=O)O)NC(=O)[C@H](CC(C)C)NC(=O)[C@H](CCC(N)=O)NC(=O)[C@H](CCC(=O)O)NC(=O)[C@@H]1CCCN1C(=O)[C@@H](NC(=O)[C@H](C)NC(=O)[C@H](CC(N)=O)NC(=O)[C@H](CC(=O)O)NC(=O)CNC(=O)[C@@H]1CCCN1C(=O)[C@H](Cc1ccc(O)cc1)NC(=O)[C@@H](NC(=O)[C@@H]1CCCN1C(=O)[C@H](CCC(=O)O)NC(=O)[C@H](CC(C)C)NC(=O)[C@@H]1CCCN1)C(C)C)[C@@H](C)O)C(=O)N[C@@H](CC(N)=O)C(=O)N[C@@H](CC(C)C)C(=O)N[C@@H](CC(C)C)C(=O)N[C@H](C(=O)N[C@@H](CCCNC(=N)N)C(=O)N1CCC[C@H]1C(=O)N[C@@H](CCCNC(=N)N)C(=O)N[C@@H](Cc1ccc(O)cc1)C(N)=O)[C@@H](C)O [SEQ ID NO: 43, N-epsilon18-[2-(2-{2-[2-(2-{2-[(S)-4-Carboxy-4-({trans-4-[(19-carboxynonadecanoylamino)methyl]cyclohexanecarbonyl}amino)butyrylamino]-ethoxy}ethoxy)acetylamino]ethoxy}ethoxy)acetyl][Leu17,Lys18,Leu30]hPP2-36] (H-PLEPVYPGDNATPEQLK([AEEA-AEEA-γGlu-Trx-C20 diacid])QYAADLRRYINLLTRPRY-NH2; N-terminus and C-terminus assumed)
> 1000	–	46	–	CC[C@H](C)[C@H](NC(=O)[C@H](Cc1ccc(O)cc1)NC(=O)[C@H](CCCNC(=N)N)NC(=O)[C@H](CCCNC(=N)N)NC(=O)[C@H](CC(C)C)NC(=O)[C@H](CC(=O)O)NC(=O)[C@H](C)NC(=O)[C@H](C)NC(=O)[C@H](Cc1ccc(O)cc1)NC(=O)[C@H](CCC(N)=O)NC(=O)[C@H](CCCCNC(=O)COCCOCCNC(=O)COCCOCCNC(=O)CC[C@H](NC(=O)CCCCCCCCCCCCCCCCC(=O)O)C(=O)O)NC(=O)[C@H](CC(C)C)NC(=O)[C@H](CCC(N)=O)NC(=O)[C@H](CCC(=O)O)NC(=O)[C@@H]1CCCN1C(=O)[C@@H](NC(=O)[C@H](C)NC(=O)[C@H](CC(N)=O)NC(=O)[C@H](CC(=O)O)NC(=O)CNC(=O)[C@@H]1CCCN1C(=O)[C@H](Cc1ccc(O)cc1)NC(=O)[C@@H](NC(=O)[C@@H]1CCCN1C(=O)[C@H](CCC(=O)O)NC(=O)[C@H](CC(C)C)NC(=O)[C@@H]1CCCN1)C(C)C)[C@@H](C)O)C(=O)N[C@@H](CC(N)=O)C(=O)N[C@@H](CC(C)C)C(=O)N[C@@H](CC(C)C)C(=O)N[C@H](C(=O)N[C@@H](CCCNC(=N)N)C(=O)N1CCC[C@H]1C(=O)N[C@@H](CCCNC(=N)N)C(=O)N[C@@H](Cc1ccc(O)cc1)C(N)=O)[C@@H](C)O [SEQ ID NO: 32, N-epsilon18-[2-(2-{2-[2-(2-{2-[(S)-4-Carboxy-4-(17-carboxyheptadecanoylamino)butyrylamino]ethoxy}ethoxy)acetylamino]-ethoxy}ethoxy)acetyl][Lys18,Leu17,Leu30]hPP2-36] (H-PLEPVYPGDNATPEQLK([AEEA-AEEA-γGlu-C18 diacid])QYAADLRRYINLLTRPRY-NH2; N-terminus and C-terminus assumed)
> 1000	–	–	62	CC[C@H](C)[C@H](NC(=O)[C@H](Cc1ccc(O)cc1)NC(=O)[C@H](CCCCNC(=O)COCCOCCNC(=O)COCCOCCNC(=O)CC[C@H](NC(=O)CCCCCCCCCCCCCCCCC(=O)O)C(=O)O)NC(=O)[C@H](CCCNC(=N)N)NC(=O)[C@H](CC(C)C)NC(=O)[C@H](CC(=O)O)NC(=O)[C@H](C)NC(=O)[C@H](C)NC(=O)[C@H](Cc1ccc(O)cc1)NC(=O)[C@H](CCC(N)=O)NC(=O)[C@H](C)NC(=O)[C@H](CC(C)C)NC(=O)[C@H](CCC(N)=O)NC(=O)[C@H](CCC(=O)O)NC(=O)[C@@H]1CCCN1C(=O)[C@@H](NC(=O)[C@H](C)NC(=O)[C@H](CC(N)=O)NC(=O)[C@H](CC(=O)O)NC(=O)CNC(=O)[C@@H]1CCCN1C(=O)[C@H](Cc1ccc(O)cc1)NC(=O)[C@@H](NC(=O)[C@@H]1CCCN1C(=O)[C@H](CCC(=O)O)NC(=O)[C@H](CC(C)C)NC(=O)[C@@H]1CCCN1)C(C)C)[C@@H](C)O)C(=O)N[C@@H](CC(N)=O)C(=O)N[C@@H](CC(C)C)C(=O)N[C@@H](CC(C)C)C(=O)N[C@H](C(=O)N[C@@H](CCCNC(=N)N)C(=O)N1CCC[C@H]1C(=O)N[C@@H](CCCNC(=N)N)C(=O)N[C@@H](Cc1ccc(O)cc1)C(N)=O)[C@@H](C)O [SEQ ID NO: 46, N-epsilon26-[2-(2-{2-[2-(2-{2-[(S)-4-Carboxy-4-(17-carboxyheptadecanoylamino)butyrylamino]ethoxy}ethoxy)acetylamino]-ethoxy}ethoxy)acetyl][Leu17,Lys26,Leu30]hPP2-36] (H-PLEPVYPGDNATPEQLAQYAADLRK([AEEA-AEEA-γGlu-C18 diacid])YINLLTRPRY-NH2; N-terminus and C-terminus assumed)
